{"source": "patent US20130197073A1", "about": "“HYPOCHOLESTEROLEMIC, ANTI-INFLAMMATORY AND ANTIEPILEPTIC NEUROPROTECTIVE COMPOUND” (NEURON BIOPHARMA, S.A., priority 2010, published 2013)", "test_system": "human neuroblastoma SK-N-MC cells", "assay": "Protection against neuronal death induced by okadaic acid (inhibition of protein phosphatase-1), WST-1", "format": "cell-based", "settings": "NST0060 at 10 μM; 20 nM OA, 22 hours; significant with 4 and 10 μM", "description": "The assay was performed on human neuroblastoma SK-N-MC cells in culture, maintained as described in section 2.1.\nThe inhibition caused by compound NST0060 with respect to cell death caused by treatment with okadaic acid (OA) which inhibits the activity of protein phosphatase-1 (PP1) was analyzed. OA is one of the most widely used drugs for studying the phosphorylation mechanism of the tau protein, involved in the pathogenesis and progression of AD. Inhibition of PP1 causes cytoskeleton alterations and mitochondrial damage. These cells, not exceeding 15 passages, were seeded on 96-well plates treated for adherent cells with a cell concentration of 5×10^4 cells/well; 3 wells of the plate were seeded for each assay condition.\nAfter 24 hours of cell incubation (at 37° C. and 5% CO2), the cell treatments were performed with 100 μl of total volume for the following conditions: • Control: culture medium (medium) • Okadaic acid (OA): medium plus 20 nM OA, causing death of 50% of the cells. • OA plus NST0060: medium plus OA (20 nM) plus NST0060 at 1, 4, 10, 40 or 100 μM.\nThe cells were incubated (at 37° C. and 5% CO2) with these treatments for 22 hours, after which time WST-1 reagent (Roche) was added. The WST-1 test is based on the measurement of metabolic activity (method described in section 2.1)."}
{"smiles": "CCCC(CCC)C(=O)O[C@H]1C[C@@H](C)C=C2C=C[C@H](C)[C@H](CC[C@@H]3C[C@@H](O)CC(=O)O3)[C@H]21", "note": "[NST0060, 2-propylpentanoic acid (1S,3R,7S,8S,8aR)-1,2,3,7,8,8a-hexahydro-3,7-dimethyl-8-[2-[(2R,4R)-tetrahydro-4-hydroxy-6-oxo-2H-pyran-2-yl]ethyl]-1-naphthalenyl ester]", "values": [{"measurement": "protection against cell death caused by OA", "result": 83, "unit": "%"}]}
